{"source": "patent EP1831172B1", "about": "“SUBSTITUTED CARBAMIC ACID QUINOLIN-6-YL ESTERS USEFUL AS ACETYLCHOLINESTERASE INHIBITORS” (priority 2004, dated 2006)", "key": {"[1]": {"tested_on": "scopolamine induced deficit (dementia/amnesia) in mice", "test": "Single trial passive avoidance test, scopolamine induced amnesia", "format": "in vivo", "conditions": "Mus musculus, 24 h", "protocol": "Single trial passive avoidance is widely used as experimental test to assess learning memory functions in rodents. […] Passive Avoidance Test (in vivo): Study was conducted in adult Swiss male mice of 3-4 months (wt. 20-25 g) which were kept in standard housing condition with 12h light and dark cycle. Food and water were available ad libitum. […] Passive avoidance test was studied by a computerized shuttle box (Columbus Instruments, Ohio, USA) provided with a software program PACS 30. The shuttle box comprises of two compartments, isolated by an automated door. […] Each mouse was placed in the bright compartment and on transfer into the dark compartment it was given an electric shock (0.5 mA for 5 s) through floor grid. Transfer of mice from bright to dark compartment was recorded as transfer latency time (TLT) in seconds. TLT was recorded in control and treated groups (1st Trial, acquisition) and then after 24 hours (2nd Trial, retention). An increase in the TLT on 2nd Trial (retention) as compared to 1st Trial (acquisition) was taken as the criterion for successful learning and memory (cognitive activity). Scopolamine induced deficit (Dementia): Scopolamine a muscarinic antagonist, known to produce impairment in cognitive functions (dementia) in human as well as in experimental animals, was used to produce deficit (no significant increase on 2nd trial) in passive avoidance learning. Scopolamine was administered 5 min prior to 1st trial. Reversal of scopolamine induced deficit i.e. significant increase in 2nd trial by test substance indicates potential anti-dementia activity. […]. Drug administration: Scopolamine was administered 5 min prior to 1st trial in test group. Each test compound was administered orally in dose of 20µmol/kg (1% aq. suspension in gum acacia) 1 hour prior to 2nd trial in scopolamine treated mice (n=5). Scopolamine control group received 1 ml/kg of vehicle (1% aq. suspension in gum acacia) orally. Scopolamine was administered 5 min prior to 1st trial in test group. […] Donepezil (10 mg/kg, po, as1% aqueous suspension in gum acacia) was used as standard drug and given 1 hour prior to 2nd trial in scopolamine treated mice. Statistical analysis: Mean values and standard error (S.E.) of mean were calculated for TLT and specific activity of AChE in the different regions of brain samples of each group. The significance of difference between the values of AChE activity and TLT between the groups was determined by one-way ANOVA test that followed by Dunnett's test. Table 4: Effect of the compounds on scopolamine induced amnesia in passive avoidance test"}, "[2]": {"biological_target": "T1, Acetylcholinesterase (Rattus norvegicus, UniProt P37136)", "T1 construct": "Aliquots of this supernatant was diluted in the ratio of 1:10 and used as a source of enzyme for the assay; from tissue; host or cells: whole brain of adult SD male rats; 10% homogenate with 1% Triton X-100, 100,000 x g supernatant", "T1 sequence (P37136 32-614)": "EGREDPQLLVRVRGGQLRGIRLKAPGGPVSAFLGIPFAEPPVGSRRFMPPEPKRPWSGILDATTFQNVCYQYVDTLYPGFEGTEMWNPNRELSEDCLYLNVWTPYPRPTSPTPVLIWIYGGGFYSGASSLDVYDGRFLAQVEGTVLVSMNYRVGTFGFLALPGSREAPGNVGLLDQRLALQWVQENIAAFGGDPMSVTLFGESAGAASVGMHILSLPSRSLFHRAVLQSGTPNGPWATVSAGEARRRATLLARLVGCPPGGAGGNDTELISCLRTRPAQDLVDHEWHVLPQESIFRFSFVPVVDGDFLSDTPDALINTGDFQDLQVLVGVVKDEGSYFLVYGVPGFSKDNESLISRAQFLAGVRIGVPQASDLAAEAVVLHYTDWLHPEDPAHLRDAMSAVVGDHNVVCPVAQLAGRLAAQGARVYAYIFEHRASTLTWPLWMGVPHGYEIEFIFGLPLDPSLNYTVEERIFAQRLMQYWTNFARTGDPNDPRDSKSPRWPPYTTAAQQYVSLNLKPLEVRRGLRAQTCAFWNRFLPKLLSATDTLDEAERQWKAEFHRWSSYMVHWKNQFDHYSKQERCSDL", "test": "Inhibitive effect on acetylcholinesterase activity (Ellman assay, rat brain homogenate supernatant)", "format": "biochemical, rats", "conditions": "for % Cholinesterase Enzyme Activity: Control AChE activity = 0.014446 (µmol / mg of protein/min)", "protocol": "The study was conducted in adult SD male rats (200-250 g). Rats were perfused under mild ether anesthesia through heart with ice cooled normal saline (0.9% NaCl) to reduce blood-borne cholinesterase from brain. After perfusion whole brain was taken out. 10% (w/v) homogenate of brain was prepared first by homogenizing in Ultra-Turrax T25 homogenizer at a speed of 9500 rpm thrice giving intervals for few seconds in between the runs, with sodium phosphate buffer (30 mmol/lit, pH 7.0). Sodium phosphate buffer was taken in a volume half to the final volume required for 10% homogenate. 1% Triton X-100 (1% w/v in 30 mmol/lit. sodium phosphate buffer, pH 7.0) is then added in a volume to make the final volume for 10% homogenate, slowly while stirring the homogenate on ice.\nKinetic profile of the enzyme activity was studied spectrophotometrically at 412 nm at an interval of 15 s. Assay for each sample was run in duplicate and each experiment was performed thrice.\nThe specific activity of AChE is expressed in µmoles/min/mg of protein.\n[…] Tacrine (1µmol) was used as standard AChE inhibitor (standard control). The AChE inhibitory activity was calculated on the basis of % decrease change from control values i.e. AChE acivity without incubation with any standard or test drug.\nBovine serum albumin (BSA) was used as standard in the concentration of 1 mg/ml. was estimated in the range of 0.01-0. mg/ml."}, "[3]": {"conditions": "% Learning in treated gp - % Learning in Scopolamine gp, test compound orally 20µmol/kg, Donepezil 10 mg/kg po, read-out: % Improvement in Learning"}, "[4]": {"conditions": "[2nd Trial - 1st trial/1st trial] x 100, scopolamine treated mice, test compound orally 20µmol/kg, Donepezil 10 mg/kg po, read-out: % Learning"}}, "note": "Like-named read-outs stand apart in the source and are kept apart here.", "data": [{"smiles": "CCCCCCCNC(=O)Oc1ccc2ncccc2c1", "note": "[1b, heptyl-carbamic acid quinolin-6-yl ester]", "values": [{"measurement": "change in vivo at 20 µmol/kg", "setting": "[1]; [3]", "result": 107, "unit": "%"}, {"measurement": "change in vivo at 20 µmol/kg", "setting": "[1]; [4]", "result": 140, "unit": "%"}]}, {"smiles": "O=C(Nc1ccccc1Cl)Oc1ccc2ncccc2c1", "note": "[1c, (2-chloro-phenyl)-carbamic acid quinolin-6-yl ester]", "values": [{"measurement": "change in vivo at 20 µmol/kg", "setting": "[1]; [3]", "result": 123, "unit": "%"}, {"measurement": "change in vivo at 20 µmol/kg", "setting": "[1]; [4]", "result": 157, "unit": "%"}]}, {"smiles": "O=C(Nc1cccc(Br)c1)Oc1ccc2c(c1)CCCN2", "note": "[2c, (3-bromo-phenyl)-carbamic acid 1,2,3,4-tetrahydro-quinolin-6-yl ester]", "values": [{"measurement": "change in vivo at 20 µmol/kg", "setting": "[1]; [3]", "result": 67.4, "unit": "%"}, {"measurement": "change in vivo at 20 µmol/kg", "setting": "[1]; [4]", "result": 101, "unit": "%"}]}, {"smiles": "CCCCCCNC(=O)Oc1ccc2c(c1)CCCN2Cc1ccccc1", "note": "[2h, hexyl-carbamic acid 1-benzyl-1,2,3,4-tetrahydro-quinolin-6-yl ester]", "values": [{"measurement": "change in vivo at 20 µmol/kg", "setting": "[1]; [3]", "result": 89.2, "unit": "%"}, {"measurement": "change in vivo at 20 µmol/kg", "setting": "[1]; [4]", "result": 123, "unit": "%"}]}, {"smiles": "O=C(Nc1ccccc1Cl)Oc1ccc2c(c1)CCCN2Cc1ccccc1", "note": "[2i, (2-chloro-phenyl)-carbamic acid 1-benzyl-1,2,3,4-tetrahydro-quinolin-6-yl ester]", "values": [{"measurement": "IC50", "setting": "[2]", "result": 3.31, "unit": "µM"}, {"measurement": "% Anticholinesterase Enzyme Inhibition", "setting": "[2]; Conc. 0.1 µm", "result": 6.45, "unit": "%"}, {"measurement": "Cholinesterase Enzyme Activity", "setting": "[2]; Conc. 0.1 µm", "result": "0.01351 µmol / mg of protein/min"}, {"measurement": "% Cholinesterase Enzyme Activity", "setting": "[2]; Conc. 0.1 µm", "result": 93.54, "unit": "%"}, {"measurement": "% Anticholinesterase Enzyme Inhibition", "setting": "[2]; Conc. 0.3 µm", "result": 16.12, "unit": "%"}, {"measurement": "Cholinesterase Enzyme Activity", "setting": "[2]; Conc. 0.3 µm", "result": "0.01211 µmol / mg of protein/min"}, {"measurement": "% Cholinesterase Enzyme Activity", "setting": "[2]; Conc. 0.3 µm", "result": 83.87, "unit": "%"}, {"measurement": "% Anticholinesterase Enzyme Inhibition", "setting": "[2]; Conc. 1 µm", "result": 25.80, "unit": "%"}, {"measurement": "Cholinesterase Enzyme Activity", "setting": "[2]; Conc. 1 µm", "result": "0.01071 µmol / mg of protein/min"}, {"measurement": "% Cholinesterase Enzyme Activity", "setting": "[2]; Conc. 1 µm", "result": 74.19, "unit": "%"}, {"measurement": "% Anticholinesterase Enzyme Inhibition", "setting": "[2]; Conc. 3 µm", "result": 48.38, "unit": "%"}, {"measurement": "Cholinesterase Enzyme Activity", "setting": "[2]; Conc. 3 µm", "result": "0.007456 µmol / mg of protein/min"}, {"measurement": "% Cholinesterase Enzyme Activity", "setting": "[2]; Conc. 3 µm", "result": 51.61, "unit": "%"}, {"measurement": "% Anticholinesterase Enzyme Inhibition", "setting": "[2]; Conc. 10 µm", "result": 87.09, "unit": "%"}, {"measurement": "Cholinesterase Enzyme Activity", "setting": "[2]; Conc. 10 µm", "result": "0.001864 µmol / mg of protein/min"}, {"measurement": "% Cholinesterase Enzyme Activity", "setting": "[2]; Conc. 10 µm", "result": 12.90, "unit": "%"}, {"measurement": "change in vivo at 20 µmol/kg", "setting": "[1]; [3]", "result": 89.6, "unit": "%"}, {"measurement": "change in vivo at 20 µmol/kg", "setting": "[1]; [4]", "result": 123, "unit": "%"}]}, {"smiles": "CN1CCCc2cc(OC(=O)Nc3ccc(Cl)c(C(F)(F)F)c3)ccc21", "note": "[2q, (4-chloro-3-trifluoromethyl-phenyl)-carbamic acid 1-methyl-1,2,3,4-tetrahydro-quinolin-6-yl ester]", "values": [{"measurement": "change in vivo at 20 µmol/kg", "setting": "[1]; [3]", "result": 76, "unit": "%"}, {"measurement": "change in vivo at 20 µmol/kg", "setting": "[1]; [4]", "result": 109, "unit": "%"}]}, {"smiles": "CN1CCCc2cc(OC(=O)Nc3ccc(Br)cc3)ccc21", "note": "[2r, (4-bromo-phenyl)-carbamic acid 1-methyl-1,2,3,4-tetrahydro-quinolin-6-yl ester]", "values": [{"measurement": "change in vivo at 20 µmol/kg", "setting": "[1]; po, read-out: % Improvement in Learning", "result": 62, "unit": "%"}, {"measurement": "change in vivo at 20 µmol/kg", "setting": "[1]; po, read-out: % Learning", "result": 95.6, "unit": "%"}]}, {"smiles": "COc1cc2c(cc1OC)C(=O)C(CC1CCN(Cc3ccccc3)CC1)C2", "note": "(centres unmarked) [DONEPEZIL, donepezil, reference compound]", "values": [{"measurement": "change in vivo at 20 µmol/kg", "setting": "[1]; [3]", "result": 134, "unit": "%"}, {"measurement": "change in vivo at 20 µmol/kg", "setting": "[1]; [4]", "result": 168, "unit": "%"}]}]}
